± gives the expanded uncertainty stated by the source.
Assay: mn = molality of the nth substance listed, in mol/kg
Conditions: for surface tension liquid-gas: Pendant drop shape; for electrical conductivity: Liquid, Digital conductivity meter

CCCCCCCCCCCCCCCC[N+](C)(CCO)CCO.[Br-] [hexadecyl- di(2-hydroxyethyl)-methylazanium bromide] + O
Conditions	electrical conductivity [S/m]	surface tension liquid-gas [mN/m]
298.15 K, m1 = 0.00011	–	64.14 ± 0.58
298.15 K, m1 = 0.00021	–	58.32 ± 0.53
298.15 K, m1 = 0.00032	–	52.91 ± 0.49
298.15 K, m1 = 0.00042	–	47.72 ± 0.45
298.15 K, m1 = 0.00053	–	44.77 ± 0.43
298.15 K, m1 = 0.00056	0.0055 ± 0.0001	–
298.15 K, m1 = 0.00058	0.0057 ± 0.0001	–
298.15 K, m1 = 0.0006	0.0059 ± 0.0001	–
298.15 K, m1 = 0.00063	0.0062 ± 0.0001	41.55 ± 0.4
298.15 K, m1 = 0.00065	0.0064 ± 0.0001	–
298.15 K, m1 = 0.00068	0.0067 ± 0.0001	–
298.15 K, m1 = 0.00072	0.0069 ± 0.0001	–
298.15 K, m1 = 0.00074	–	38.75 ± 0.38
298.15 K, m1 = 0.00075	0.0072 ± 0.0001	–
298.15 K, m1 = 0.00079	0.0073 ± 0.0001	38.7 ± 0.38
298.15 K, m1 = 0.00084	0.0075 ± 0.0001	38.62 ± 0.38
298.15 K, m1 = 0.00089	0.0077 ± 0.0001	38.55 ± 0.38
298.15 K, m1 = 0.00094	0.0078 ± 0.0001	–
298.15 K, m1 = 0.00095	–	38.02 ± 0.37
298.15 K, m1 = 0.001	0.0081 ± 0.0001	–
298.15 K, m1 = 0.00105	–	38.11 ± 0.37
298.15 K, m1 = 0.00108	0.0083 ± 0.0001	–
298.15 K, m1 = 0.00116	0.0086 ± 0.0001	37.87 ± 0.37
298.15 K, m1 = 0.00126	0.0089 ± 0.0001	37.86 ± 0.37
298.15 K, m1 = 0.00137	0.0092 ± 0.0001	–
298.15 K, m1 = 0.00151	0.0094 ± 0.0001	–
303.15 K, m1 = 0.00032	0.0034 ± 0.0001	–
303.15 K, m1 = 0.00035	0.0038 ± 0.0001	–
303.15 K, m1 = 0.00039	0.0042 ± 0.0001	–
303.15 K, m1 = 0.00043	0.0046 ± 0.0001	–
303.15 K, m1 = 0.0005	0.0052 ± 0.0001	–
303.15 K, m1 = 0.00058	0.0061 ± 0.0001	–
303.15 K, m1 = 0.00063	0.0066 ± 0.0001	–
303.15 K, m1 = 0.00068	0.007 ± 0.0001	–
303.15 K, m1 = 0.00075	0.0075 ± 0.0001	–
303.15 K, m1 = 0.00084	0.0081 ± 0.0001	–
303.15 K, m1 = 0.00094	0.0086 ± 0.0001	–
303.15 K, m1 = 0.001	0.0088 ± 0.0001	–
303.15 K, m1 = 0.00107	0.0091 ± 0.0001	–
303.15 K, m1 = 0.00116	0.0094 ± 0.0001	–
303.15 K, m1 = 0.00125	0.0097 ± 0.0001	–
303.15 K, m1 = 0.00137	0.01 ± 0.0001	–
303.15 K, m1 = 0.0015	0.0105 ± 0.0001	–
308.15 K, m1 = 0.00031	0.0037 ± 0.0001	–
308.15 K, m1 = 0.00035	0.004 ± 0.0001	–
308.15 K, m1 = 0.00038	0.0044 ± 0.0001	–
308.15 K, m1 = 0.00043	0.0049 ± 0.0001	–
308.15 K, m1 = 0.00049	0.0057 ± 0.0001	–
308.15 K, m1 = 0.00058	0.0067 ± 0.0001	–
308.15 K, m1 = 0.00063	0.0072 ± 0.0001	–
308.15 K, m1 = 0.00068	0.0078 ± 0.0001	–
308.15 K, m1 = 0.00075	0.0084 ± 0.0001	–
308.15 K, m1 = 0.00083	0.009 ± 0.0001	–
308.15 K, m1 = 0.00094	0.0097 ± 0.0001	–
308.15 K, m1 = 0.001	0.01 ± 0.0001	–
308.15 K, m1 = 0.00107	0.0102 ± 0.0001	–
308.15 K, m1 = 0.00116	0.0106 ± 0.0001	–
308.15 K, m1 = 0.00125	0.0108 ± 0.0001	–
308.15 K, m1 = 0.00137	0.0112 ± 0.0001	–
308.15 K, m1 = 0.0015	0.0117 ± 0.0001	–
313.15 K, m1 = 0.00058	0.0073 ± 0.0001	–
313.15 K, m1 = 0.0006	0.0075 ± 0.0001	–
313.15 K, m1 = 0.00062	0.0078 ± 0.0001	–
313.15 K, m1 = 0.00065	0.0081 ± 0.0001	–
313.15 K, m1 = 0.00068	0.0084 ± 0.0001	–
313.15 K, m1 = 0.00071	0.0088 ± 0.0001	–
313.15 K, m1 = 0.00075	0.009 ± 0.0001	–
313.15 K, m1 = 0.00079	0.0097 ± 0.0001	–
313.15 K, m1 = 0.00083	0.0101 ± 0.0001	–
313.15 K, m1 = 0.00088	0.0105 ± 0.0001	–
313.15 K, m1 = 0.00094	0.0109 ± 0.0001	–
313.15 K, m1 = 0.001	0.0112 ± 0.0001	–
313.15 K, m1 = 0.00107	0.0116 ± 0.0001	–
313.15 K, m1 = 0.00115	0.012 ± 0.0001	–
313.15 K, m1 = 0.00125	0.0124 ± 0.0001	–
313.15 K, m1 = 0.00136	0.0128 ± 0.0001	–
313.15 K, m1 = 0.0015	0.0133 ± 0.0001	–
318.15 K, m1 = 0.00055	0.0075 ± 0.0001	–
318.15 K, m1 = 0.00058	0.0078 ± 0.0001	–
318.15 K, m1 = 0.0006	0.008 ± 0.0001	–
318.15 K, m1 = 0.00062	0.0084 ± 0.0001	–
318.15 K, m1 = 0.00065	0.0087 ± 0.0001	–
318.15 K, m1 = 0.00068	0.0091 ± 0.0001	–
318.15 K, m1 = 0.00071	0.0095 ± 0.0001	–
318.15 K, m1 = 0.00075	0.0099 ± 0.0001	–
318.15 K, m1 = 0.00079	0.0105 ± 0.0001	–
318.15 K, m1 = 0.00083	0.0111 ± 0.0001	–
318.15 K, m1 = 0.00088	0.0116 ± 0.0001	–
318.15 K, m1 = 0.00093	0.0122 ± 0.0001	–
318.15 K, m1 = 0.001	0.0127 ± 0.0001	–
318.15 K, m1 = 0.00107	0.0131 ± 0.0001	–
318.15 K, m1 = 0.00115	0.0135 ± 0.0001	–
318.15 K, m1 = 0.00125	0.0139 ± 0.0001	–
318.15 K, m1 = 0.00136	0.0145 ± 0.0001	–
318.15 K, m1 = 0.0015	0.0152 ± 0.0001	–
323.15 K, m1 = 0.00055	0.008 ± 0.0001	–
323.15 K, m1 = 0.00057	0.0083 ± 0.0001	–
323.15 K, m1 = 0.0006	0.0086 ± 0.0001	–
323.15 K, m1 = 0.00062	0.0089 ± 0.0001	–
323.15 K, m1 = 0.00065	0.0093 ± 0.0001	–
323.15 K, m1 = 0.00068	0.0097 ± 0.0001	–
323.15 K, m1 = 0.00071	0.0101 ± 0.0001	–
323.15 K, m1 = 0.00075	0.0106 ± 0.0001	–
323.15 K, m1 = 0.00079	0.0112 ± 0.0001	–
323.15 K, m1 = 0.00083	0.0117 ± 0.0001	–
323.15 K, m1 = 0.00088	0.0124 ± 0.0001	–
323.15 K, m1 = 0.00093	0.0131 ± 0.0001	–
323.15 K, m1 = 0.00099	0.0137 ± 0.0001	–
323.15 K, m1 = 0.00107	0.0143 ± 0.0001	–
323.15 K, m1 = 0.00115	0.0148 ± 0.0001	–
323.15 K, m1 = 0.00124	0.0154 ± 0.0001	–
323.15 K, m1 = 0.00136	0.0161 ± 0.0001	–
323.15 K, m1 = 0.00149	0.0169 ± 0.0001	–

O [water] + CCCCCCCCCCCCCCCC[N+](C)(C)CCO.[Br-]
Conditions	surface tension liquid-gas [mN/m]
298.15 K, m2 = 0	72.17 ± 0.64

O [water] + CCCCCCCCCCCCCCCC[N+](C)(CCO)CCO.[Br-]
Conditions	surface tension liquid-gas [mN/m]
298.15 K, m2 = 0	72.17 ± 0.64

O [water] + CCCCCCCCCCCCCC[N+](C)(C)CCO.[Br-]
Conditions	surface tension liquid-gas [mN/m]
298.15 K, m2 = 0	72.17 ± 0.64

O [water] + CCCCCCCCCCCCCC[N+](C)(CCO)CCO.[Br-]
Conditions	surface tension liquid-gas [mN/m]
298.15 K, m2 = 0	72.17 ± 0.64

O [water] + CCCCCCCCCCCC[N+](C)(C)CCO.[Br-]
Conditions	surface tension liquid-gas [mN/m]
298.15 K, m2 = 0	72.17 ± 0.64

O [water] + CCCCCCCCCCCC[N+](C)(CCO)CCO.[Br-]
Conditions	surface tension liquid-gas [mN/m]
298.15 K, m2 = 0	72.17 ± 0.01

Reference: the NIST ThermoML archive (doi:10.1021/je300873x)
